Assay results as given in patent US5439939A, “Pharmaceutical compositions and methods using isobutyramide for treating betaglobin disorders” (Children's Hospital Medical Center of Northern California, priority 1992, dated 1995).

Experiments:
[1] = Plasma levels of isobutyramide after administration; format: in vivo, baboon and human
Protocol: Adult, male baboons (Papio anubis) were used as experimental animals. Three baboons were rendered anemic by daily phlebotomy for at least about 30 days, and maintained at hematocrit values of about 22% by daily phlebotomy. Each anemic baboon was treated with isobutyramide. One baboon (no. 767) received isobutyramide by oral formulation of 150 mg isobutyramide per ml of distilled sterile water administered through a naso-gastric tube three times per week for three weeks. This baboon received isobutyramide at a dosage of 600 mg per kg of body weight. Another baboon (no. 224) received isobutyramide by parenteral formulation of 150 mg isobutyramide per ml of distilled sterile water administered by intravenous infusion over a 30 minute period one time per day for three weeks. This baboon received isobutyramide at a dosage of 500 mg per kg of body weight. […]
Isobutyramide was administered orally to the baboon (no.767) and parenterally to another baboon (no.224) as described in Example 3. The plasma concentrations of the isobutyramide at various times after a single oral dose to those baboons are shown in FIG. 1 (measured by gas liquid chromatography and expressed in millimoles per liter ("mM")). […]

[2] = standard assays; cited from earlier work
[3] = tested on: gammaglobin; assay: Effect of isobutyramide on percentage of gammaglobin to total gamma plus betaglobin in anemic baboons in vivo; set-up: species or system baboon (Papio anubis)
Protocol: (§1) Adult, male baboons (Papio anubis) were used as experimental animals. Three baboons were rendered anemic by daily phlebotomy for at least about 30 days, and maintained at hematocrit values of about 22% by daily phlebotomy. Each anemic baboon was treated with isobutyramide. One baboon (no. 767) received isobutyramide by oral formulation of 150 mg isobutyramide per ml of distilled sterile water administered through a naso-gastric tube three times per week for three weeks. This baboon received isobutyramide at a dosage of 600 mg per kg of body weight. Another baboon (no. 224) received isobutyramide by parenteral formulation of 150 mg isobutyramide per ml of distilled sterile water administered by intravenous infusion over a 30 minute period one time per day for three weeks. This baboon received isobutyramide at a dosage of 500 mg per kg of body weight. Another baboon (no. 207) received isobutyramide by parenteral formulation of 150 mg isobutyramide per ml of distilled sterile water administered by intravenous infusion over a 30 minute period one time per day for three days. This baboon received isobutyramide at a dosage of 500 mg per kg of body weight. The experiment was terminated with this baboon after three days due to an infection. Blood samples were taken throughout the course of treatment. Samples were assayed to determine the percentage of gammaglobin to total gamma-globin and betaglobin (Table 1) and the percentage of total reticulocytes containing gammaglobin, sometimes called "F-retics" (Table 2). The assay to measure the percentage of gammaglobin to total gamma-globin and betaglobin was by the method described in Perrine, S. P., et al., Delay In The Fetal Globin Switch In Infants Of Diabetic Mothers, New Eng. J. Med. vol.312, pp.334-338 (1985). The assay to measure the percentage of total reticulocytes containing gammaglobin was performed by the method described in Rogers, G., et al., Hematologic Response of Patients with Sickle Cell Disease To Treatment with Hydroxyurea, New Eng. J. Med., vol.322, pp.1037-1045 (1990).

[4] = tested on: erythroid progenitors from peripheral blood; assay: Effect of isobutyramide in vitro on percentage of gammaglobin to total gamma plus betaglobin in cultured erythroid progenitors; format: cell-based, human; settings: 0.2 mM, about 14 days
Protocol: Cultures of erythroid progenitors from peripheral blood of patients having a betaglobin disorder and normal subjects were cultured for about 14 days in presence of 0.2 millimoles per liter ("mM") isobutyramide and the percentages of gammaglobin to total gamma plus betaglobin were assayed substantially according to the methods described in Perrine, S. P. et al., Sodium Butyrate Enhances Fetal Globin Gene Expression in Erythroid Progenitors of Patients With Hb SS and Beta Thalassemia, Blood, vol.74, pp.454-459 (1989). The patients with sickle-cell anemia are identified as "SS" and with beta-thalassemia as "beta-thal." Ages are specified in years.

[5] = species not given; cited from earlier work
[6] = tested on: reticulocytes containing gammaglobin (F-retics); assay: Effect of isobutyramide on percentage of F-retics to total reticulocytes in anemic baboons in vivo; set-up: species or system baboon (Papio anubis)
Protocol: as §1

[7] = administered in therapeutically effective amounts; cited from earlier work

Compound: CC(C)C(N)=O [isobutyramide, Isobutyramide]
- plasma levels ([1]; oral and parenteral administration): sufficient to yield therapeutic effects
- half-life ([1]; plasma, after oral or parenteral administration, species not specified (baboons and humans)): 456 to 630 min
- mutagenicity [2]: not mutagenic
- production of fetal hemoglobin in vivo ([3]; anemic baboons, Tables 1 and 2): significantly stimulated the production of fetal hemoglobin
- Percentage of gammaglobin to total gamma plus betaglobin, treatment (highest achieved) ([3]; baboon 207, 500 mg per kg i.v. infusion over 30 min, once per day for three days, pre-treatment 0): 9%
- Percentage of gammaglobin to total gamma plus betaglobin, treatment (highest achieved) ([3]; baboon 224, 500 mg per kg i.v. infusion over 30 min, once per day for three weeks, pre-treatment 2): 11%
- Percentage of gammaglobin to total gamma plus betaglobin, treatment (highest achieved) ([3]; baboon 767, 600 mg per kg oral (naso-gastric tube), three times per week for three weeks, pre-treatment 3): 12%
- production of fetal hemoglobin in culture ([4]; Table 3): significantly stimulated the production of fetal hemoglobin in culture
- Percentage of gammaglobin to total gamma plus betaglobin, treatment ([4]; SS (sickle-cell anemia), age 10-11, pre-treatment 22): 40%
- Percentage of gammaglobin to total gamma plus betaglobin, treatment ([4]; SS (sickle-cell anemia), pre-treatment 17): 96%
- Percentage of gammaglobin to total gamma plus betaglobin, treatment ([4]; SS (sickle-cell anemia), pre-treatment 42): 55%
- Percentage of gammaglobin to total gamma plus betaglobin, treatment ([4]; SS (sickle-cell anemia), pre-treatment 70): 78%
- Percentage of gammaglobin to total gamma plus betaglobin, treatment ([4]; beta-thal, newborn, pre-treatment 40): 50%
- Percentage of gammaglobin to total gamma plus betaglobin, treatment ([4]; beta-thal, pre-treatment 65): 98%
- Percentage of gammaglobin to total gamma plus betaglobin, treatment ([4]; beta-thal, pre-treatment 70): 64%
- Percentage of gammaglobin to total gamma plus betaglobin, treatment ([4]; normal, newborn, pre-treatment 5): 45%
- Percentage of gammaglobin to total gamma plus betaglobin, treatment ([4]; normal, newborn, pre-treatment 20): 26%
- Percentage of gammaglobin to total gamma plus betaglobin, treatment ([4]; normal, newborn, pre-treatment 69): 72%
- acute intravenous LD 50 [5]: about 3 g per kilogram
- Percentage of F-retics to total reticulocytes, treatment ([6]; baboon 207, 500 mg per kg i.v. infusion over 30 min, once per day for three days, pre-treatment 3): 15%
- Percentage of F-retics to total reticulocytes, treatment ([6]; baboon 224, 500 mg per kg i.v. infusion over 30 min, once per day for three weeks, pre-treatment 16): 27%
- Percentage of F-retics to total reticulocytes, treatment ([6]; baboon 767, 600 mg per kg oral (naso-gastric tube), three times per week for three weeks, pre-treatment 13): 17%
- toxicity [7]: substantially non-toxic
